How the values were obtained:
Procathepsin L [1] = target: T1, Procathepsin L (Homo sapiens, UniProt P07711); assay: Inhibition of CTSL (unknown origin) using Z-Phe-Arg-AMC as substrate by fluorometric assay
Procathepsin L [2] = target: T1, Procathepsin L; assay: Inhibition of CTSL (unknown origin)
[3] = Lipophilicity, logP of compound; details: octanol/water
Procathepsin L [4] = target: T1, Procathepsin L; assay: Inhibition of CTSL (unknown origin) using Z-Phe-Arg-AMC as substrate preincubated for 30 mins followed by substrate addition measured after 6 mins by fluorescence based assay

T1 sequence (P07711 whole entry): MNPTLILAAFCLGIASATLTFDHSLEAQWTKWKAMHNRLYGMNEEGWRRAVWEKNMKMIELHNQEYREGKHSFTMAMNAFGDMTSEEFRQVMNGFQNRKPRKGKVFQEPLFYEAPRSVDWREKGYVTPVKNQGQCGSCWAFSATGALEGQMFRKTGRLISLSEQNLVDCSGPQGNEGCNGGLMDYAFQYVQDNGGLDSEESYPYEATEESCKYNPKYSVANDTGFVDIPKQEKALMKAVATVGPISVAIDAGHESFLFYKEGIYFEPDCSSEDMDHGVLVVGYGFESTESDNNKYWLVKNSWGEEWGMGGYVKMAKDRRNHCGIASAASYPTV

For `O=C(O)/C=C/c1ccc(O)cc1O`, the IC50 (Procathepsin L [1]) was 930 µM.

`Cc1ccc(S(=O)(=O)/C=C/C(=O)[C@H](CC(C)C)NC(=O)[C@H](CC(C)C)NC(=O)OCc2ccccc2)cc1` gave a Ki (Procathepsin L [2]) of 0.0085 µM.

With `CCOC(=O)/C=C/C(=O)[C@H](CC(C)C)NC(=O)[C@H](Cc1ccccc1)NC(=O)OCc1ccccc1` the Ki (Procathepsin L [2]) was 0.012 µM.

With `O=C(N[C@H](COC(=O)[C@H](Cc1ccccc1)NC(=O)c1ccccc1)Cc1ccccc1)c1ccccc1` [ASPERPHENAMATE] the IC50 (Procathepsin L [2]) was 91.2 µM.

In the case of `C[C@@H](/C=C/[N+](=O)[O-])NC(=O)[C@H](Cc1c[nH]c2ccccc12)NC(=O)OCc1ccccc1`, the Ki (Procathepsin L [2]) is reported as 0.0011 µM and the logP [3] is reported as 1.61.

With `O=C(N[C@H](COC(=O)[C@H](Cc1ccccc1)NS(=O)(=O)c1cccc(Br)c1)Cc1ccccc1)c1ccccc1` the IC50 (Procathepsin L [2]) was 5.8 µM.

With `C[C@@H](/C=C/[N+](=O)[O-])NC(=O)[C@H](Cc1ccc([N+](=O)[O-])cc1)NC(=O)OCc1ccccc1` the Ki (Procathepsin L [2]) was 0.0039 µM and the logP [3] was 1.85.

Molecule `O=C(N[C@@H](Cc1ccccc1)C(=O)OC[C@H](Cc1ccccc1)NS(=O)(=O)c1ccc(Br)cc1)c1ccccc1` has an IC50 (Procathepsin L [2]) of 6 µM.

Molecule `Cc1ccc(S(=O)(=O)N[C@@H](Cc2ccccc2)C(=O)OC[C@H](Cc2ccccc2)NC(=O)c2ccccc2)cc1` has an IC50 (Procathepsin L [4]) of 30.2 µM.

Source: ChEMBL document CHEMBL6071139, “Recent discovery of natural substances with cathepsin L-inhibitory activity for cancer metastasis suppression” (Eur J Med Chem, 2024)
